pIC50: −log10 of the molar value.

In experiment [1] the target is T1, human Cav3.2 channel (Homo sapiens, UniProt O95180).
T1 construct: expressed in transfected cells
Nature of the experiment: Electrophysiological evaluation, automated whole-cell patch clamp of Cav3.2 channel current (Pharmacological Test 2). The experiment is classed as cell-based. The conditions noted are these: for inhibition at 0.3 µM: 0.3 μM test compound, holding potential −80 mV, depolarization to −20 mV, read-out: Cav3.2 channel current inhibition rate in test compound of 0.3 μM (holding potential of −80 mV) (%). The procedure:
The human Cav3.2 channel expressing stable cell line prepared by the test method (1) of Example 36 was seeded in a 10-cm dish using a DMEM medium containing 10% FBS, followed by culturing 37° C. for 24 hours under a 5% CO2 condition. The cells were detached using Accutase, and suspended in ice-cooled extracellular fluid for use. A Cav3.2 channel current was measured using an automated patch clamp system (Port-a-Patch; Nanion Technologies, EPC-10; HEKA Elektronik GmbH, Patchmaster; HEKA Elektronik GmbH) and buffers shown below, by a whole-cell patch-clamp method. The measurement of the Cav3.2 channel current was performed at room temperature, a measurement condition was a holding potential of −80 mV, a depolarization potential was −20 mV, a depolarization time was 100 msec, and a depolarization frequency was 10 sec. The Cav3.2 channel current was a peak value of an inward current observed at the time of depolarization to −20 mV.
The test compound was obtained by diluting a DMSO solution 1000 times with extracellular fluid to prepare a solution having a target concentration. The test compound was applied using an external perfusion system (Nanion Technologies) until the Cav3.2 channel current was stabilized, and a maximum of five concentrations from the low concentration side were cumulatively applied. An inhibition rate of the test compound was calculated from a change rate between a current value immediately before application of the test compound and the Cav3.2 channel current after application of the test compound (in a condition of holding potential of −80 mV, a concentration of the test compound was 0.3 μM, and in a condition of holding potential of −100 mV, a concentration of the test compound was 3 μM).
Extracellular fluid: 135 mM NaCl, 4 mM KCl, 1 mM MgCl2, 5 mM CaCl2, 5 mM D-Glucose, 10 mM HEPES, pH 7.4
Electrode internal fluid: 10 mM NaCl, 10 mM HEPES, 50 mM CsCl, 60 mM Cs-Fluoride, 20 mM EGTA, pH 7.2
(In patch-clamp work, channel activity is measured electrically.)

The target in experiment [2] is T1, human Cav3.2 channel. Nature of the experiment: Intracellular calcium concentration measurement in human Cav3.2 channel expressing stable cell line (Pharmacological Test 1). To be noted: HEK293 cells stably expressing human Cav3.2, Fluo-4 AM fluorescence, KCl stimulation; read-out: Cav3.2 channel inhibitory action. The experiment is classed as cell-based. The method in brief:
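HEK293 cells stably expressing human Cav3.2 were loaded with Fluo-4 AM for 45 min, then preincubated 15 min at room temperature with compound (0.1% DMSO) in B buffer (K+ equilibrium potential −92 mV). After ionophore addition, cells were depolarized with 83.8 mM KCl and calcium influx was read for 10 s (ex 485/em 510 nm). IC50 was fitted from maximal fluorescence increase over baseline.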
(In general: Calcium assays in cells follow changes in intracellular calcium, usually with a dye or a luminescent sensor.)

In experiment [3] the test system is mouse partial sciatic nerve ligation (PSNL) model. Put plainly: Mechanical allodynia in mouse partial sciatic nerve ligation (PSNL) model, von Frey filament test (Pharmacological Test 3). To be noted: 30 mg/kg orally administered. The class given is in vivo. The method, then: A mouse PSNL model was prepared according to a method of Seltzer et al. A mouse was anesthetized by inhalation with isoflurane. A femoral region of the mouse was shaved and disinfected with isodine. Skin on a femur of the mouse was incised, fascia just below the skin was cut off, and muscle heads of musculus biceps femoris were divided. After confirmation of sciatic nerves just below the muscle, and the sciatic nerves were separated without damage. ½ to ⅓ of the sciatic nerve was penetrated by a needle with 8-0 silk and ligated. The skin was sutured and the mouse was reared for about 7 days. In surgery of a sham control mouse, only confirmation of the sciatic nerves was performed and then the skin was sutured.
A pain threshold was measured after moving the mice to a cage for measurement and waiting for the exploratory behavior to disappear. Regarding the pain threshold (paw withdrawal filament ((g)), soles of the mice were stimulated with von Frey filaments (Sttoelting Co.: TOUCH-TEST SENSORY EVLUATOR) having different stimulation intensities, and the presence or absence of avoidance response was observed. A 50% threshold was calculated by an up down method with reference to a method of Chaplan et al. (Quantitative assessment of tactile allodynia in the rat paw. J neurosci Methods, 53, 1994, 55 to 63). […]

T1 sequence (O95180 whole entry): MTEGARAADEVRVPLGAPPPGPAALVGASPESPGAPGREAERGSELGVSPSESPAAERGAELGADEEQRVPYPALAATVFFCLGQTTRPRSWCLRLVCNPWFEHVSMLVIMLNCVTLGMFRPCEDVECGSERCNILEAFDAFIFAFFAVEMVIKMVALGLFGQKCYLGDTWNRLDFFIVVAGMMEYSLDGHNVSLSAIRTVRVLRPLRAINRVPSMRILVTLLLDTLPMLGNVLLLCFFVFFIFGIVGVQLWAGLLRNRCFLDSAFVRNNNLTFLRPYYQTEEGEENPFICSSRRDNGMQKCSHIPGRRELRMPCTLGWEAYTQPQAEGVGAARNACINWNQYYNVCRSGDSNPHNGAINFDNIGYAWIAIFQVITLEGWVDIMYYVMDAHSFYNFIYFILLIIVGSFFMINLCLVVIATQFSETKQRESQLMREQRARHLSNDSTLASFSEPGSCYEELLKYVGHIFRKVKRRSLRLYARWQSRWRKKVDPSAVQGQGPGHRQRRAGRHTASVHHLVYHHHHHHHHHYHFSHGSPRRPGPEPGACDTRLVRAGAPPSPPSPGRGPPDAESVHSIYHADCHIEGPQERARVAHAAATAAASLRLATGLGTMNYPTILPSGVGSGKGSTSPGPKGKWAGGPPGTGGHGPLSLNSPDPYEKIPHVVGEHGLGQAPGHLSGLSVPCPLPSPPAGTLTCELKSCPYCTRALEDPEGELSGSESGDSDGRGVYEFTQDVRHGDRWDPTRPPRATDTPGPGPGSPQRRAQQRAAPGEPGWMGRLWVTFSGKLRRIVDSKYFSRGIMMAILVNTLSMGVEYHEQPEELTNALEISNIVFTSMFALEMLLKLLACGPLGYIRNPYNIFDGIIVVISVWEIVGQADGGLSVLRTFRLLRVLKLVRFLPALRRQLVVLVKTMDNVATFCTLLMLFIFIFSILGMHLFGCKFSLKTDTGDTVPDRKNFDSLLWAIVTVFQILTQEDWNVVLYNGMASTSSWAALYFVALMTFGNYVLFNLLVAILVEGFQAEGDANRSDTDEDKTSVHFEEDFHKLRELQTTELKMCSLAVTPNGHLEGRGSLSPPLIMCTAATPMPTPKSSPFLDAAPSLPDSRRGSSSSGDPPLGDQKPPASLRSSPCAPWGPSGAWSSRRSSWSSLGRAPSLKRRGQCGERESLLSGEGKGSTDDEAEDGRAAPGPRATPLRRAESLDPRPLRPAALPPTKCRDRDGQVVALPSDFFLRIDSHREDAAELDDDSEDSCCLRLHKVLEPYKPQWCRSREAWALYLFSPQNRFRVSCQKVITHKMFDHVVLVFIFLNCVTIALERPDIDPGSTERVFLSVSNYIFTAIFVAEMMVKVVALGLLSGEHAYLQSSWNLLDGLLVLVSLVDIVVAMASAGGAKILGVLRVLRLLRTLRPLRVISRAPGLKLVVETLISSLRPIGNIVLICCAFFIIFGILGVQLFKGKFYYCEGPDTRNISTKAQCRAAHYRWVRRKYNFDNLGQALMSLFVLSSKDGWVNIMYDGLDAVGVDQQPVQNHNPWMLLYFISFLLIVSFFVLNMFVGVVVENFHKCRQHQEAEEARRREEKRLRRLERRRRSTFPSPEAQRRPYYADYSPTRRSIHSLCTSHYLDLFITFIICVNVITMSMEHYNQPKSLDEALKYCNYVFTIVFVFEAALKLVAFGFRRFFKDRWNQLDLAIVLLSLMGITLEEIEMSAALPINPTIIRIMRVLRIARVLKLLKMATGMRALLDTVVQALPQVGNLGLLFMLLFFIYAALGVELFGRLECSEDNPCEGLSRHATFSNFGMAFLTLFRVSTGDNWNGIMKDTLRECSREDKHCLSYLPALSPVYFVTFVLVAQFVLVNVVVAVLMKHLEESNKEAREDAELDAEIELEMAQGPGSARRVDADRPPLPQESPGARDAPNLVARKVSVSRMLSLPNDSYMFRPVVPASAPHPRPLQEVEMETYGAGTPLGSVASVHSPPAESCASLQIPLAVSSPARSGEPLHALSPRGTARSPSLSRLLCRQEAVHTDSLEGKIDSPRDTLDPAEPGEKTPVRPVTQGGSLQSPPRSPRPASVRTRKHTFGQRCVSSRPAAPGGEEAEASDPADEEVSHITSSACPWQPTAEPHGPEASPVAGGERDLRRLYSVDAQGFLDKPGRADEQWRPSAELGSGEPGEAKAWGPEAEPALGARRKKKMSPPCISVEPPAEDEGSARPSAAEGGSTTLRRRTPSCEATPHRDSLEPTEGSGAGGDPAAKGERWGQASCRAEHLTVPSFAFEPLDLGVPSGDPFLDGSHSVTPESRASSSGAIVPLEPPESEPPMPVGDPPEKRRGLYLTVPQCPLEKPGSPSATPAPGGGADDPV

In general, inhibition refers to the relative decrease from the control value, in per cent. With `CC(NC(=O)C1CC1c1nc2ccccc2[nH]1)C(=O)Nc1ccc(C(F)(F)F)nc1` (single isomer, unassigned) [Example 5A, Trans-2-(1H-benzo[d]imidazol-2-yl)-N-(1-oxo-1-((6-(trifluoromethyl)pyridin-3-yl)amino)propan-2-yl) cyclopropane-1-carboxamide], the inhibition at 0.3 µM on human Cav3.2 channel [1] worked out at 74%. For the same compound, at human Cav3.2 channel [1] (3 μM test compound, holding potential −100 mV, read-out: Cav3.2 channel current inhibition rate in test compound of 3 μM (holding potential of −100 mV) (%)), the inhibition at 3 µM stood at 32%. At human Cav3.2 channel [2], the pIC50 was 6.00 to 7.00. Also, in experiment [3], the “mechanical allodynia (pain threshold, von Frey filament test) compared to the vehicle group” value is recorded as “statistically significantly suppressed”.
Consider `O=C(NC1(C(=O)Nc2ccc(OC(F)(F)F)cc2)CC1)[C@H]1C[C@@H]1c1nc2ccccc2[nH]1` [Example 24, 1-((1S, 2S)-2-(1H-Benzo[d]imidazol-2-yl)cyclopropane-1-carboxamido)-N-(4-(trifluoromethoxy)phenyl) cyclopropane-1-carboxamide], for which the inhibition at 0.3 µM at human Cav3.2 channel [1] is 68%. Further, the pIC50 on human Cav3.2 channel [2] was at least 7.00.
For `O=C(NC1(C(=O)Nc2ccc(C(F)(F)F)cc2)CC1)[C@H]1C[C@@H]1c1nc2ccccc2[nH]1` [Example 26, 1-((1S, 2S)-2-(1H-Benzo[d]imidazol-2-yl)cyclopropane-1-carboxamido)-N-(4-(trifluoromethyl)phenyl) cyclopropane-1-carboxamide], the inhibition at 0.3 µM on human Cav3.2 channel [1] came to 84%. Further, the pIC50 on human Cav3.2 channel [2] was at least 7.00. In addition, the “mechanical allodynia (pain threshold, von Frey filament test) compared to the vehicle group” value in experiment [3] is given as “statistically significantly suppressed”.

The record behind these values is US11370761B2, “Voltage-dependent T-type calcium channel inhibitor” (Nippon Chemiphar Co., Ltd., priority 2017, dated 2022).
